Test results taken from patent US5652222A, “Selective inhibition of leukemic cell proliferation by bcr-abl antisense oligonucleotides” (Temple University-of The Commonwealth System of Higher …, priority 1993, dated 1997).

Legend:
[1] = tested on: cell line ALL-1 (b1a2 junction); test: Leukemic cell number of Ph1-positive ALL cell line expressing b1a2 junction; assay type: cell-based, human; details: 50 μg at time zero, 25 μg/ml at 24 and 48 h; vs control and mismatch-treated cultures (FIG. 6)
[2] = tested on: bcr-abl protein; details: cited from earlier work
[3] = tested on: K562; details: Caracciolo et al., Science 245; cited from earlier work
[4] = tested on: BV173 cells (b2/a2); test: Proliferation of BV173 cells expressing b2a2 junction; assay type: cell-based, human
Experimental: Amplification of the bcr-abl junction with a 5' primer corresponding to bcr exon 2, and a 3' primer corresponding to abl exon 2, followed by hybridization to an 18-mer specific for the b2/a2 or the b3/a2 junction identified the b2/a2 breakpoint in these cells (data not shown).
The sensitivity of the BV173 cells to b2/a2 antisense phosphorothioate oligodeoxynucleotides was assessed. Phosphorothioate oligodeoxynucleotides were prepared on either an Applied Biosystems Model 380B or 390Z Automated Synthesis instrument using conventional phosphoramidite monomers and manufacturer-recommended procedures, which included substitution of tetraethylthiuran (or an equivalent sulfur-donor reagent) for iodine-water-pyridine, […] reversed-phase preparative chromatography, detritylation, and obtaining the final product in the form of its sodium salt, all according to previously published methodology: Zon and Stec, in Oligonucleotides and Analogues A Practical Approach, F. Eckstein, Ed. (Oxford Univerisity Press, Oxford 1991), pp. 87-108; Zon and Geiser, Anti-Cancer Drug Design 6, 539 (1991); Vu and Hirschenbein, Tetrahedron Lett. 32, 3005-3008 (1991).
BV173 cells were cultured in the presence of phosphorothioate b2/a2 antisense 26-mer CGCTGAAGGG CTTCTTCCT ATTGAT (SEQ ID NO:29), the phosphorothioate sense sequence ATCAATAAGGAAGCCCTTCAGCG (SEQUENCE ID NO:34), or the b3/a2 (SEQ ID NO:31) or b1/a2 (SEQ ID N0:33) phosphorothioate antisense 26-mer. […] The sense oligomer SEQ ID NO:34 gave no inhibition (FIG. 7, -.largecircle.-) in comparison to untreated control cells (FIG. 7, -.quadrature.-).

[5] = tested on: bcr-abl (b2/a2) transcripts; test: RT-PCR of bcr-abl transcripts in tissues of leukemic SCID mice; assay type: in vivo, SCID mice (human leukemic cells)
Experimental: According to a third assay, the extent of leukemic disease was assessed by chain RT-PCR to monitor the expression of b2/a2 transcripts (assay sensitivity=[…]) in total RNA isolated from bone marrow cells, splenocytes, peripheral blood leukocytes, liver, lung and brain tissues. Depending on the number of BV173 cells injected, various numbers of leukemic cells were detected by clonogenic assay and RT-PCR in murine tissues, 3 and 6 weeks after injection. A few days before the expected death of leukemic SCID mice, approximately 80, 65, and 10% cALLA-positive cells were detected in bone marrow cells, splenocytes and peripheral blood leukocytes, respectively.
(§1) To determine whether synthetic phosphorothioate oligodeoxynucleotides targeted against the bcr-abl junction of […] cells would modify the disease process in SCID mice. SCID mice were injected with 10^6 BV173 cells. The mice then received 1 mg of sense (ATCAATAAGG AAGCCCTTCAGCG, SEQ ID NO:34) or antisense ([…] ATTGAT, SEQ ID NO:29) b2/a2 bcr-abl phosphorothioate oligodeoxynucleotides (pyrogen leven <1 Eu/mg; 0.2 ml in Iscove modified Dulbecco medium in 5-10 seconds) intravenously for each of 9 consecutive days, beginning either 7 or 21 days after introducing 10^6 BV173 cells. Control mice received the diluent (iscove's modified Dulbecco medium) only. These time points approximate distinct disease stages in humans.
At 7 (+7) and 21 (+21) days after injecting SCID mice with 10^6 BV173 cells, single cell suspensions were prepared from various tissues. After lysing red cells with 0.83% NH4 Cl buffered with 0.17 mM Tris-HCl, pH 7.4, total RNA was extracted as described (Chomczynski and Sacchi, Anal. Biochem. 162, 156 (1987)) and the suspension was divided into two equal aliquots. Bcr-abl and β-actin transcripts were reverse-transcribed and amplified with specific primers and Taq polymerase as described by Szczylik et al., Science 253, 562 (1991). Amplification products were separated on a 2% agarose gel, transferred to a nitrocellulose filter and hybridized with a synthetic 40-base c-abl fragment or 20-base β-actinfragment end-labeled with [γ^32 -P]-ATP and polynucleotide kinase. The c-abl probe recognizes an amplified 257-bp sequence containing the bcr-abl junction: the β-actin probe recognizes a 209-bp fragment, contained within the 5' and 3' β-actin primers (Tokunaga et al., Nucleic Acids Res. 14, 2829 (1986)).

[6] = tested on: BV173 cells (cALL antigen (CALLA)-positive cells); test: Immunofluorescence / flow cytometry of CALLA-positive cells in tissues of leukemic SCID mice; assay type: in vivo, SCID mice (human leukemic cells)
Experimental: A first assay comprised an immunofluorescence analysis of cALL antigen (CALLA)-positive cells. All BV173 cells but not normal murine hematopoietic cells express this antigen (assay sensitivity=10^-2). Single cell suspensions were prepared for flow cytometry analysis from peripheral blood, spleen and bone marrow cells of the leukemic SCID mice by centrifugation on a lymphocyte-M gradient (Cedarlane Labs, Ltd., Ontario, Canada). Cells (1×10^5) were stained with the FITC-conjugated mouse anti-CALLA monoclonal antibody (Becton-Dickinson Immunocytometry Systems, San Jose, Calif.) to human CD10 antigen. After staining, cells were washed and analyzed by flow cytometry using the Epics Profile Analyzer (Coulter Electronic).
as §1

[7] = tested on: BV173 cells; test: Macroscopic examination / disease state of leukemic SCID mice; assay type: in vivo, SCID mice (human leukemic cells)
Experimental: Injection of the mice with BV173 cells induces a disease closely resembling that in human leukemia patients.
as §1

[8] = assay type: in vivo, SCID mice; details: mice treated with bcr-abl antisense
Experimental: Severe combined immunodeficient (SCID) mice injected with leukemia cells developed a disease process closely resembling that in humans. […] The cell-associated accumulation of antisense oligomer in various organs reached 4-60 μM, which is more than adequate to inhibit growth of leukemic cells. (See FIG. 7).

[9] = tested on: BV173 cells; test: Survival of leukemic SCID mice; assay type: in vivo, SCID mice (human leukemic cells); details: treatment starting from days +7 or +21 (FIG. 12)
From the text: To determine the lethal dose of BV173 cells in the SCID mice, we injected from 10^3 to 10^7 cells into the tail vein and monitored survival at various times postinjection. Mice injected with 10^7, 10^6, 10^5, or 10^4 BV173 cells died 8-10, 9-12, 13-15, or 14-22 weeks later, respectively, due to leukemia cell growth as confirmed on necroscopy. Spleen weight was about 40 times higher than that in noninjected SCID mice while liver and kidneys had numerous metastases and were enlarged 10-fold as compared to noninjected mice. Mice injected with 10^3 BV173 cells were still alive 35 weeks post implantation, and leukemia was never detected. From this study, 10^6 cells was taken as a lethal dose.
as §1

[10] = tested on: BV173 cells; test: Clonogenic assay of tissues of leukemic SCID mice; assay type: in vivo, SCID mice (human leukemic cells)
Experimental: A second assay for leukemic disease comprised a clonogenic assay in semisolid medium. […] By contrast, BV173 cells formed numerous, rapidly growing colonies. To rule out the possibility that the presence of BV173 cells permitted the growth of murine progenitors, mixing experiments were carried out.
as §1
10^5 cells were plated in duplicate in 35×10 mm tissue culture dishes (Nunc, Inc., Naperville, Ill.) in HCC-4230 medium (Terry Fox Lab., Vancouver, Canada) supplemented with 2.5 mM L-glutamine, and allowed to grow for 12 days. Plates were scanned with an inverted microscope and total colony number was determined. The results are shown in FIG. 9 (C, untreated mouse; S, sense-treated mouse, AS, antisense-treated mouse).

[11] = from day +21, 26 days after treatment (8 weeks)

Substance: SEQ ID NO:9: 18-mer antisense oligonucleotide GAAGGGCTTC TGCGTCTC completely complementary to the b1a2 junction (antisense GAAGGGCTTCTGCGTCTC; chemistry not given here)
- leukemic cell number [1]: significant reduction in leukemic cell number over the control and mismatch-treated cultures

Substance: SEQ ID NO:27: antisense oligodeoxynucleotide TACTGGCCGC TGAAGGGC complementary to 18 nucleotides of the second exon of c-abl (antisense TACTGGCCGCTGAAGGGC; DNA, backbone and methylation of C not given here)
- reducing bcr-abl protein levels ([2]; Caracciolo et al., Science 245): effective in reducing bcr-abl protein levels
- specificity for the bcr-abl junction ([2]; hybridization to message from untranslocated abl): not specific for the bcr-abl junction, as it also hybridizes to the message from untranslocated abl
- inhibition of the Ph1-positive cell line K562 [3]: inhibition of the Ph^1 -positive cell line K562

Substance: SEQ ID NO:29: b2a2 antisense phosphorothioate 26-mer CGCTGAAGGGCTTCTTCCTT ATTGAT (antisense CGCTGAAGGGCTTCTTCCTTATTGAT; all phosphorothioate, sugars by position and methylation of C not given here)
- inhibition of proliferation ([4]; 3.0 μM, 9 days in culture): 100%
- inhibition of proliferation of BV173 cells ([4]; in comparison to untreated control cells (FIG. 7)): Only the b2/a2 antisense oligodeoxynucleotide inhibited the proliferation of BV173 cells
- bcr-abl transcripts in tissues ([5]; from day +7, 12 days after last treatment (4 weeks), blood, spleen, bone marrow, liver, lung, brain): not in the antisense-treated mouse
- bcr-abl (b2/a2) transcripts in tissues ([5]; from day +7, 26 days after last treatment (6 weeks), blood leukocytes, spleen, bone marrow, liver, lung, brain): no bcr-abl (b2/a2) transcripts in the tissues
- RT-PCR product (bcr-abl), spleen [5, 11]: less abundant than in the sense-treated mouse
- bcr-abl transcripts in tissues [5, 11]: undetectable after antisense-treatment in each tissue analyzed except spleen
- CALLA+ cells in tissues ([6]; from day +7, 26 days after last treatment (6 weeks)): No CALLA+ cells were detected
- CALLA+ cells in tissues ([6]; from day +21, 12 days after last treatment (6 weeks)): not detected after antisense treatment
- CALLA+ cells in tissues [6, 11]: not detected in the antisense-treated mouse
- apparently disease-free, days after injection of leukemic cells ([7]; 1 mg/mouse x9 i.v. from day 7): ≥ 42 days
- apparently disease-free, days after injection of leukemic cells ([7]; 1 mg/mouse x9 i.v. from day 21): ≥ 56 days
- protection from leukemic disease ([7]; SCID mice injected with BV173 cells): protected from the disease
- macroscopic examination: metastases / leukemic nodules in liver, kidneys, splenomegaly ([7]; from day +21, 26 days after treatment (8 weeks), FIG. 11): not in antisense-treated animal
- cell-associated accumulation of antisense oligomer in various organs [8]: 4 to 60 µM
- mortality / survival outcome [9]: prolonged survival
- survival after i.v. injection of 10^6 BV173 cells [9]: ≥ 16 weeks
- leukemic colonies, peripheral blood leukocytes ([10]; 1 mg/day i.v. x9 from day +7, killed 26 days after last treatment (6 weeks)): no detectable colonies
- leukemic colonies, peripheral blood mononuclear cells ([10]; 1 mg/mouse/day x9 from day +21, 12 days after last treatment (6 weeks), untreated 11.0±8.5): 0 colonies
- leukemic colonies, spleen ([10]; 1 mg/mouse/day x9 from day +21, 12 days after last treatment (6 weeks), untreated 80.5±12.0): 0 colonies
- leukemic colonies, bone marrow ([10]; 1 mg/mouse/day x9 from day +21, 26 days after treatment (8 weeks)): not after antisense treatment
